{"source": "patent US5733917A", "about": "“Heterocyclic compound” (Taisho Pharmaceutical Co., Ltd., priority 1994, dated 1998)", "key": {"serotonin 4 receptor": {"target": "T1, serotonin 4 receptor (Cavia porcellus, UniProt O70528)", "T1 construct": "from tissue; host or cells: ileum longitudinal muscle strips of Hartley guinea pigs", "T1 sequence (O70528 whole entry)": "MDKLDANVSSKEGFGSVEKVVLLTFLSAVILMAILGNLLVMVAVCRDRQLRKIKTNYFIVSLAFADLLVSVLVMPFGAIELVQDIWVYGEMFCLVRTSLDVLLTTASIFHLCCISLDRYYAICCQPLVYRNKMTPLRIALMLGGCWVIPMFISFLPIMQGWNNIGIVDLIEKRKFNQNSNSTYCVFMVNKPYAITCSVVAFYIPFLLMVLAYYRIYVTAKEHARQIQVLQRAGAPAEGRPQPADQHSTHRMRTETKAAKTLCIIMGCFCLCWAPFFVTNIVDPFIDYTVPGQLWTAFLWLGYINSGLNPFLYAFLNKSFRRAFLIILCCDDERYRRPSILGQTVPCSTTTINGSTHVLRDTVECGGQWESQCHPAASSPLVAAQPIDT", "test": "Stimulating action test on serotonin 4 receptor: twitch responses in electrically stimulated longitudinal muscle strips of guinea pig ileum", "type": "cell-based, guinea pig (Hartley)", "excerpt": "Stimulating Action Test on Serotonin 4 Receptor Test Drugs\nTest Drug 1: Compound 1 of the present invention\nTest Drug 2: The compound described in Japanese Patent Kokai No. 3-197462 represented by the following formula: [drawing 5]\nTest Drug 3: The compound described in Japanese Patent Kokai No. 4-226980 represented by the following formula: [drawing 6]\nTwitch responses were examined in longitudinal muscle strips of guinea pig according to a modification of the method described in The Journal of Pharmacology and Experimental Therapeutics, vol. 252, page 1378, 1990.\nFrom Hartley guinea pigs, a section of ileum 25 cm in length and proximal to the ileocecal junction was removed. The longitudinal muscle strips obtained from two segments of ileum about 4 cm each in length were used for this test. The longitudinal muscle strips were suspended in Kreb's solution at 32° to 34° C. and bubbled with 95% O2 and 5% CO2 under a load of about 0.8 g. The responses were recorded under an electrical stimulation of 0.2 Hz, 1 msec pulse duration, using force displacement transducers. The longitudinal muscle strips were allowed to stand at supramaximal voltage for about an hour, and thereby were stable. After it was confirmed that the twitch responses were enhanced by 10^-8 M 5-HT, each test drug was examined on its activity for twitch responses. The test was carried out by exposing the strips to cumulative additions of the test drug at least at 45 minute intervals."}, "serotonin 4 receptors": {"system": "serotonin 4 receptors", "conditions": "stimulants of serotonin 4 receptors; Alimentary Pharmacology and Therapeutics, vol. 6, page 273, 1992; cited from earlier work"}, "gastrointestinal motor": {"system": "gastrointestinal motor", "test": "Action on gastrointestinal motor in dogs (strain gauge force transducers, motility index)", "type": "in vivo, Beagle dogs", "conditions": "for Motility Index: dog, gastric motor after feeding", "protocol": "Action on Gastrointestinal Motor in Dogs\nThe test was carried out by a modification of the method described in Gastroenterologia Japonica, vol. 12, page 275, 1977.\nBeagle dogs of both sexes weighing 9 to 15 kg were anesthetized with sodium pentobarbital and strain gauge force transducers were sutured on 5 portions, i.e. for determining antral, duodenum, jejunal, ileal and colonel motor responses. A cannula for administering a drug was mounted persistently into the jugular vein. After recovery of the surgery, motor responses of the dog under no-anesthesia without restriction at those portions on the gastrointestinal tract in both during a fasting period and after feeding were determined in the conscious […].\n(§1) The compound of the present invention was administered after dissolving in saline aqueous solution.\nThe motor index is shown in terms of a proportion (%) of a mean value calculated for 15 minutes to a value prior to administration (0 minute). The value for 0 minute was made a mean value for 30 minutes prior to the administration.\nTables 2 and 3 show the activity of the compound of the present invention in doses of 0.3 mg/kg for intravenous route and 1 mg/kg for oral route, respectively, on the gastric motor action after feeding."}, "gastric emptying": {"system": "gastric emptying", "test": "Action on gastric emptying in rats (clonidine-treated, residual rate of glass balls in stomach)", "type": "in vivo, Male wistar rats", "conditions": "rat; for Residual rate in Stomach: relative to clonidine hydrochloride-treated animal", "protocol": "Action on Gastric Emptying in Rats\nThe test was carried out by a modification of the method described in British Journal of Pharmacology, vol. 91, page 263, 1987.\nMale wistar rats weighing 170 to 220 g were used after fasting for 24 hours.\nClonidine hydrochloride of 30 μg/kg was administered subcutaneously, and after 30 minutes the compound of the present invention was administered subcutaneously. After 30 minutes 1 ml of glass balls (500 mg/ml) was administered orally. After 30 minutes the glass balls remained in the stomach were recovered and weighed to determine the rate [residual rate in stomach (%)] to the residual amount in the stomach of the clonidine hydrochloride-treated animal.\nas §1"}, "[1]": {"test": "Toxicity examination of mouse single administration (acute toxicity)", "conditions": "in vivo, single oral administration, read-out: LD value", "protocol": "With respect to toxicity of Compound (1) represented by Formula (I) which is an effective ingredient of the pharmaceutical composition of the present invention, as a result of the toxicity examination of mouse single administration (acute toxicity), the LD value is more than 500 mg/kg by oral administration."}, "[2]": {"conditions": "guinea pig ileum longitudinal muscle strips, electrical stimulation 0.2 Hz, 1 msec, cumulative additions at least at 45 minute intervals, read-out: ED50 (the source's name)"}}, "note": "Where two headings read alike, the source gives them in different places."}
{"smiles": "NCCc1c[nH]c2ccc(O)cc12", "note": "[Compound 5-HT]", "values": [{"measurement": "twitch responses", "setting": "serotonin 4 receptor; 10^-8 M 5-HT, confirmation before test drug", "result": "enhanced"}]}
{"smiles": "COc1cc(N)c(Cl)cc1C(=O)NC1CCN(CCCOc2ccc(F)cc2)CC1OC", "note": "(centres unmarked) [Cisapride]", "values": [{"measurement": "gastrointestinal motor functions", "setting": "serotonin 4 receptors", "result": "accelerate gastrointestinal motor functions"}]}
{"smiles": "CN1[C@@H]2CC[C@H]1C[C@@H](OC(=O)c1cc3ccccc3[nH]c1=O)C2", "note": "[Test Drug 2]", "values": [{"measurement": "EC50", "setting": "serotonin 4 receptor; [2]", "result": "> 3000", "unit": "nM"}]}
{"smiles": "CC(C)n1c(=O)c(C(=O)O[C@H]2C[C@H]3CC[C@@H](C2)N3C)cc2ccccc21", "note": "[Compound (1), endo-(8-methyl-8-azabicyclo[3.2.1]oct-3-yl) 1-isopropyl-2(1H)-quinolone-3-carboxylate]", "values": [{"measurement": "EC50", "setting": "serotonin 4 receptor", "result": 21.3, "unit": "nM"}, {"measurement": "Motility Index", "setting": "gastrointestinal motor; intravenous 0.3 mg/kg, 0 min (value prior to administration, = 100), N = 3", "result": 100, "unit": "%"}, {"measurement": "Motility Index", "setting": "gastrointestinal motor; intravenous 0.3 mg/kg, 15 min, N = 3, p < 0.05", "result": 247.8, "unit": "%"}, {"measurement": "Motility Index", "setting": "gastrointestinal motor; intravenous 0.3 mg/kg, 30 min, N = 3, p < 0.01", "result": 219.8, "unit": "%"}, {"measurement": "Motility Index", "setting": "gastrointestinal motor; intravenous 0.3 mg/kg, 45 min, N = 3, p < 0.01", "result": 178.8, "unit": "%"}, {"measurement": "Motility Index", "setting": "gastrointestinal motor; intravenous 0.3 mg/kg, 60 min, N = 3, p < 0.01", "result": 162.3, "unit": "%"}, {"measurement": "Motility Index", "setting": "gastrointestinal motor; intravenous 0.3 mg/kg, 75 min, N = 3, p < 0.001", "result": 181.0, "unit": "%"}, {"measurement": "Motility Index", "setting": "gastrointestinal motor; intravenous 0.3 mg/kg, 90 min, N = 3", "result": 166.7, "unit": "%"}, {"measurement": "Motility Index", "setting": "gastrointestinal motor; intravenous 0.3 mg/kg, 105 min, N = 3", "result": 150.1, "unit": "%"}, {"measurement": "Motility Index", "setting": "gastrointestinal motor; intravenous 0.3 mg/kg, 120 min, N = 3", "result": 123.5, "unit": "%"}, {"measurement": "Motility Index", "setting": "gastrointestinal motor; oral 1 mg/kg, 0 min (value prior to administration, = 100), N = 3", "result": 100, "unit": "%"}, {"measurement": "Motility Index", "setting": "gastrointestinal motor; oral 1 mg/kg, 15 min, N = 3", "result": 179.5, "unit": "%"}, {"measurement": "Motility Index", "setting": "gastrointestinal motor; oral 1 mg/kg, 30 min, N = 3", "result": 238.6, "unit": "%"}, {"measurement": "Motility Index", "setting": "gastrointestinal motor; oral 1 mg/kg, 45 min, N = 3", "result": 295.0, "unit": "%"}, {"measurement": "Motility Index", "setting": "gastrointestinal motor; oral 1 mg/kg, 60 min, N = 3", "result": 238.8, "unit": "%"}, {"measurement": "Motility Index", "setting": "gastrointestinal motor; oral 1 mg/kg, 75 min, N = 3", "result": 252.3, "unit": "%"}, {"measurement": "Motility Index", "setting": "gastrointestinal motor; oral 1 mg/kg, 90 min, N = 3", "result": 193.9, "unit": "%"}, {"measurement": "Motility Index", "setting": "gastrointestinal motor; oral 1 mg/kg, 105 min, N = 3", "result": 251.7, "unit": "%"}, {"measurement": "Motility Index", "setting": "gastrointestinal motor; oral 1 mg/kg, 120 min, N = 3", "result": 257.8, "unit": "%"}, {"measurement": "Motility Index", "setting": "gastrointestinal motor; oral 1 mg/kg, 135 min, N = 3, p < 0.05", "result": 220.6, "unit": "%"}, {"measurement": "Motility Index", "setting": "gastrointestinal motor; oral 1 mg/kg, 150 min, N = 3", "result": 158.1, "unit": "%"}, {"measurement": "Motility Index", "setting": "gastrointestinal motor; oral 1 mg/kg, 165 min, N = 3", "result": 201.9, "unit": "%"}, {"measurement": "Motility Index", "setting": "gastrointestinal motor; oral 1 mg/kg, 180 min, N = 3, p < 0.05", "result": 188.9, "unit": "%"}, {"measurement": "motor action on the gastrointestinal tract", "setting": "gastrointestinal motor; intravenous and oral administrations, both during the fasting period and after feeding, vehicle alone no influence", "result": "showed acceleration on the motor action on the gastrointestinal tract"}, {"measurement": "Residual rate in Stomach", "setting": "gastric emptying; subcutaneous 0.03 mg/kg, 5 cases", "result": 59.2, "unit": "%"}, {"measurement": "Residual rate in Stomach", "setting": "gastric emptying; subcutaneous 0.1 mg/kg, 5 cases", "result": 50.4, "unit": "%"}, {"measurement": "Residual rate in Stomach", "setting": "gastric emptying; subcutaneous 0.3 mg/kg, 6 cases", "result": 38.7, "unit": "%"}, {"measurement": "Residual rate in Stomach", "setting": "gastric emptying; subcutaneous 1.0 mg/kg, 6 cases", "result": 40.0, "unit": "%"}, {"measurement": "action on gastric emptying", "setting": "gastric emptying; subcutaneous administration", "result": "inhibited dose-dependent accelerating action on gastric emptying"}, {"measurement": "LD50", "setting": "[1]", "result": "> 500", "unit": "mg/kg"}]}
{"smiles": "CCCCn1c(=O)c(C(=O)N[C@H]2C[C@H]3CC[C@@H](C2)N3C)c(O)c2ccccc21", "note": "[Test Drug 3]", "values": [{"measurement": "EC50", "setting": "serotonin 4 receptor; [2]", "result": "> 3000", "unit": "nM"}]}
{"smiles": "COc1cc(N)c(Cl)cc1C(=O)NC1CCN2CCCC1C2", "note": "(centres unmarked) [renzapride]", "values": [{"measurement": "gastrointestinal motor functions", "setting": "serotonin 4 receptors", "result": "accelerate gastrointestinal motor functions"}]}
